We go through nine compounds from ChEMBL document CHEMBL5465560, “Selectivity Literature for EUbOPEN Chemogenomic Library” (2024).

Assay [1] deals with Serine/threonine-protein kinase 16 (Homo sapiens, UniProt O75716). Description: Selectivity interaction (LanthaScreen Eu Kinase Binding Assay) EUB0001632a STK16. The conditions noted are these: at 10 µM.
Assay [2] addresses MAP/microtubule affinity-regulating kinase 3 (Homo sapiens) (UniProt P27448). Description: Selectivity interaction (KinomeScan (DiscoverX)) EUB0000695a MARK3. As to conditions: at 100 nM.
Assay [3] deals with Protein-tyrosine kinase 6 (Homo sapiens, UniProt Q13882). Description: Selectivity interaction (KinaseProfiler screening (Millipore, enzymatic assay)) EUB0000601a PTK6.
Assay [4] concerns the target T1, Serine/threonine-protein kinase BRSK1 (Homo sapiens) (UniProt Q8TDC3).
T1 sequence (whole entry): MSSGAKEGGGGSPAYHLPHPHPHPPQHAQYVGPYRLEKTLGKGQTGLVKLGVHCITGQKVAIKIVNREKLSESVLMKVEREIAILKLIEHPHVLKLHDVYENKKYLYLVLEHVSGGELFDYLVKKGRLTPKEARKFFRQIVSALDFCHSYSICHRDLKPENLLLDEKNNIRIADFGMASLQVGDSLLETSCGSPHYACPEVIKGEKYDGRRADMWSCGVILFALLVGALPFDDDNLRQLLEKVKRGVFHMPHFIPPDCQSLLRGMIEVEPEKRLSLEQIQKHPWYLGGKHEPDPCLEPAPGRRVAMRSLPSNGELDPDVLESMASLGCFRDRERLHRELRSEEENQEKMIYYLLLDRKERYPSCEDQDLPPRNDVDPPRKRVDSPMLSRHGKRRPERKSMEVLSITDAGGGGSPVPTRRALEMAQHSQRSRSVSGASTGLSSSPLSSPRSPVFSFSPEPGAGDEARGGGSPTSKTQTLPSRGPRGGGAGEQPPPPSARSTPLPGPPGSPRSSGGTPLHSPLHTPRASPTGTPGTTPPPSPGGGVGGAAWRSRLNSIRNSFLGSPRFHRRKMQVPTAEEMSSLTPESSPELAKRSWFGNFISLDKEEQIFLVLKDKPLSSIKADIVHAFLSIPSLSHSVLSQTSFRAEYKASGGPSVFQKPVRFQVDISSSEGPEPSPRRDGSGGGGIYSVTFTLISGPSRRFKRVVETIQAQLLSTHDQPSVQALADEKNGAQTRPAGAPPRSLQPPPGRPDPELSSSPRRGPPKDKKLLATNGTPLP
The assay is described as follows: Selectivity interaction (Kinase panel (Invitrogen)) EUB0000639a BRSK1. The conditions noted are these: at 200 nM.

Assay [5] concerns the target Dual specificity protein kinase CLK3 (Homo sapiens, UniProt P49761). Description: Selectivity interaction (Ambit KINOMEscan and KiNATiv profiling in Jurkat cells) EUB0000090b CLK3. In kind it is cell-based. As to conditions: at 1 µM.
Assay [6] concerns the target T2, Mitogen-activated protein kinase kinase kinase 5 (Homo sapiens) (UniProt Q99683).
T2 sequence (whole entry): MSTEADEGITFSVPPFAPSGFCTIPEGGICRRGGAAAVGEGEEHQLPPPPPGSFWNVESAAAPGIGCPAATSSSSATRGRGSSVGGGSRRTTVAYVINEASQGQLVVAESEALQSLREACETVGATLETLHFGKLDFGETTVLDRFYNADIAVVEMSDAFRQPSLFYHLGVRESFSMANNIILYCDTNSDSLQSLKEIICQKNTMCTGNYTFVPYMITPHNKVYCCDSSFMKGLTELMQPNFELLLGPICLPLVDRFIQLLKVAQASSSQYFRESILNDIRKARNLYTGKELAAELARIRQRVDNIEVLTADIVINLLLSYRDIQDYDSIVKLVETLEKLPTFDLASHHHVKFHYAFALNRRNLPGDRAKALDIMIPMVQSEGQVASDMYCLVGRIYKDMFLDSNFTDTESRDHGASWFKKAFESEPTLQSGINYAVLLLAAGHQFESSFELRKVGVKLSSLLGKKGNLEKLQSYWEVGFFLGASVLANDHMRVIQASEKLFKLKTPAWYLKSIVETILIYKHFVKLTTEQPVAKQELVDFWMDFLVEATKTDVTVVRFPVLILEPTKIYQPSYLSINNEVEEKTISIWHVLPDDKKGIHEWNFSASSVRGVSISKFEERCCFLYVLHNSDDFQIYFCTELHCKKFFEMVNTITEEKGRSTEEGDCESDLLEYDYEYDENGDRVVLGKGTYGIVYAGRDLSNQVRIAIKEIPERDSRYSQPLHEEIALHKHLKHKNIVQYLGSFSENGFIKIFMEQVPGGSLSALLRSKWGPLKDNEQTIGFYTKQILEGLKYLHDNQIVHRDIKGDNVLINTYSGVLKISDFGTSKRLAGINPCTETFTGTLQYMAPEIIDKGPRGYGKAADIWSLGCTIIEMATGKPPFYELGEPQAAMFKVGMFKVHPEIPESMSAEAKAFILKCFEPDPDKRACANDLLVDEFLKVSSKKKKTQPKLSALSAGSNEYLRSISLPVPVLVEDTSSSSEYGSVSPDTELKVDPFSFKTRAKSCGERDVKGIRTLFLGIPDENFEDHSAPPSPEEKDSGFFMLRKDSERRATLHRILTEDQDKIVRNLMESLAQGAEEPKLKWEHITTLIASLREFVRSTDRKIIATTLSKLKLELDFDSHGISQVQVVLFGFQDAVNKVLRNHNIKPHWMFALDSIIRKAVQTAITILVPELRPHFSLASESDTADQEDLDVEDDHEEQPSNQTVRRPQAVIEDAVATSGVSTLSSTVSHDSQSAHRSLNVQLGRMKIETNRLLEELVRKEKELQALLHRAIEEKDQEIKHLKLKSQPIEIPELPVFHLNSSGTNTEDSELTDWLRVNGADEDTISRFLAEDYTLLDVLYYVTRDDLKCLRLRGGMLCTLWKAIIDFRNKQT
The assay is described as follows: Selectivity interaction (KinomeScan (DiscoverX)) EUB0000618a MAP3K5. The conditions noted are these: at 10 µM.

Assay [7] has as its target Ephrin type-A receptor 2 (Homo sapiens) (UniProt P29317). Description: Selectivity interaction (Kinase panel (DSF assay)) EUB0001558a EPHA2. On the technique in general: In DSF a fluorescence change marks the thermal transition of the protein.
In assay [8] the target is Tyrosine-protein kinase Fes/Fps (Homo sapiens) (UniProt P07332). Description: Selectivity interaction (KinomeScan (DiscoverX)) EUB0001079a FES. The conditions noted are these: at 1 µM.
Assay [9] deals with Rho-associated protein kinase 2 (Homo sapiens, UniProt O75116). Description: Selectivity interaction (Millipore kinase profiler) EUB0000124b ROCK2. As to conditions: at 10 µM.

Tyrosine-protein kinase Fes/Fps (Homo sapiens), sequence (P07332 whole entry): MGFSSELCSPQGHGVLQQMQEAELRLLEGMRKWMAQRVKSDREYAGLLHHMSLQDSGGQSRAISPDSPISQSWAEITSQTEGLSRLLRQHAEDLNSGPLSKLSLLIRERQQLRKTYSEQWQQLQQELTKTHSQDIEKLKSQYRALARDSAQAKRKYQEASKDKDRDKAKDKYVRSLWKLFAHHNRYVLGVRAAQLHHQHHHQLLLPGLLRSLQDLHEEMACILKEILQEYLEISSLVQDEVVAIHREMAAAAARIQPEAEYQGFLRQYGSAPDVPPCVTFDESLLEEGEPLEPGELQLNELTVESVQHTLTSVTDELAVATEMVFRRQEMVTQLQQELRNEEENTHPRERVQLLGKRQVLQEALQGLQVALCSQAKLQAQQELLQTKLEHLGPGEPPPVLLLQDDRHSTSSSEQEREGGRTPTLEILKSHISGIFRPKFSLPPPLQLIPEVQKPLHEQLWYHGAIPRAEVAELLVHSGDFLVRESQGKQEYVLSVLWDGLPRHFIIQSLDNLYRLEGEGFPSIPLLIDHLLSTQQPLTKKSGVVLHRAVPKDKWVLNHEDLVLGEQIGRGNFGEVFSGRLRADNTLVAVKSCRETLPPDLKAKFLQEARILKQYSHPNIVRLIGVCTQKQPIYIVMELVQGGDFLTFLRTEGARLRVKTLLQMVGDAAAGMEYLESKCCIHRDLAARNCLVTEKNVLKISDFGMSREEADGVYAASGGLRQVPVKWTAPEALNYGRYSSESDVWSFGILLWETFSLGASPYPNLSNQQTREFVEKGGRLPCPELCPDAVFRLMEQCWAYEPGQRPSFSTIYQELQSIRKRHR
Protein-tyrosine kinase 6, sequence (Q13882 whole entry): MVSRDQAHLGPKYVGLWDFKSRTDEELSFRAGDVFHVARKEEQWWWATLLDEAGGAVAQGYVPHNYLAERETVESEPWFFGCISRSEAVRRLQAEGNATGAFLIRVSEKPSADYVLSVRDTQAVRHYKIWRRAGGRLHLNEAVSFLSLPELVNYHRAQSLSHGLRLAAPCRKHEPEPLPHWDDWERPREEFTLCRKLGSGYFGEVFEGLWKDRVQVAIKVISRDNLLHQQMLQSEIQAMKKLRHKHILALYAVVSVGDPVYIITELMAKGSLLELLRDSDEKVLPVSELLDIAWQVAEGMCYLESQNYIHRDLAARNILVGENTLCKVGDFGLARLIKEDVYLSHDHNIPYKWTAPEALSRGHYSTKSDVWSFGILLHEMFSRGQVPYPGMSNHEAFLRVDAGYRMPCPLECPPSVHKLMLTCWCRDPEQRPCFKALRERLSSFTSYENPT
MAP/microtubule affinity-regulating kinase 3 (Homo sapiens), sequence (P27448 whole entry, looked up): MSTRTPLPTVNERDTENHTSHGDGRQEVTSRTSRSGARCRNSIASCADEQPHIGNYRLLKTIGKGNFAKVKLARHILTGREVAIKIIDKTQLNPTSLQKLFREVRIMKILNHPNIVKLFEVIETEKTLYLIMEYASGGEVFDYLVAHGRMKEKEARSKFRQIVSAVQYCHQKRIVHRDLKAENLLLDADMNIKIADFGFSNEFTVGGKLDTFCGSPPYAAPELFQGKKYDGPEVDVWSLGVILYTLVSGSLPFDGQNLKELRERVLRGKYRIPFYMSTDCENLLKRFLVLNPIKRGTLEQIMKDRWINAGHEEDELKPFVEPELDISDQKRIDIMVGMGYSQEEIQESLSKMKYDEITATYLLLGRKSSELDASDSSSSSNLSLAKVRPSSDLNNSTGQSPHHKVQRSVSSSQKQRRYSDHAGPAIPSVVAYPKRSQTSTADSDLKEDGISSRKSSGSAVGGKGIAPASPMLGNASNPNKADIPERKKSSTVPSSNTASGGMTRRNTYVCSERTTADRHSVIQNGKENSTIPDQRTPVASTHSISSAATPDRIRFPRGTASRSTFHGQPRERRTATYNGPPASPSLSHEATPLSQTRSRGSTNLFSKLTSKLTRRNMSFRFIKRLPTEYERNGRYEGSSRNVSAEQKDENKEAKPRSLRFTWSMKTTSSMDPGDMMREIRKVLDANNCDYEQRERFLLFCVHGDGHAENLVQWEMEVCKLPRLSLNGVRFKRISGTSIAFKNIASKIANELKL
Serine/threonine-protein kinase 16, sequence (O75716 whole entry): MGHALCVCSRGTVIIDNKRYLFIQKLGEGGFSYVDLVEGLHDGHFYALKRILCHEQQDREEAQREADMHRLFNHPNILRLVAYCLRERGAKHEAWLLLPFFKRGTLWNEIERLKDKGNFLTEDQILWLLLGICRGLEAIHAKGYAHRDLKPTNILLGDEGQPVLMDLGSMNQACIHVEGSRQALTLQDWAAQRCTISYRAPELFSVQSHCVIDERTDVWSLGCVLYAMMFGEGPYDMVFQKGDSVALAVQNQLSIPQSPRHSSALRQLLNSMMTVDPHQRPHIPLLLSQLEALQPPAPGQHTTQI
Ephrin type-A receptor 2 (Homo sapiens), sequence (P29317 whole entry): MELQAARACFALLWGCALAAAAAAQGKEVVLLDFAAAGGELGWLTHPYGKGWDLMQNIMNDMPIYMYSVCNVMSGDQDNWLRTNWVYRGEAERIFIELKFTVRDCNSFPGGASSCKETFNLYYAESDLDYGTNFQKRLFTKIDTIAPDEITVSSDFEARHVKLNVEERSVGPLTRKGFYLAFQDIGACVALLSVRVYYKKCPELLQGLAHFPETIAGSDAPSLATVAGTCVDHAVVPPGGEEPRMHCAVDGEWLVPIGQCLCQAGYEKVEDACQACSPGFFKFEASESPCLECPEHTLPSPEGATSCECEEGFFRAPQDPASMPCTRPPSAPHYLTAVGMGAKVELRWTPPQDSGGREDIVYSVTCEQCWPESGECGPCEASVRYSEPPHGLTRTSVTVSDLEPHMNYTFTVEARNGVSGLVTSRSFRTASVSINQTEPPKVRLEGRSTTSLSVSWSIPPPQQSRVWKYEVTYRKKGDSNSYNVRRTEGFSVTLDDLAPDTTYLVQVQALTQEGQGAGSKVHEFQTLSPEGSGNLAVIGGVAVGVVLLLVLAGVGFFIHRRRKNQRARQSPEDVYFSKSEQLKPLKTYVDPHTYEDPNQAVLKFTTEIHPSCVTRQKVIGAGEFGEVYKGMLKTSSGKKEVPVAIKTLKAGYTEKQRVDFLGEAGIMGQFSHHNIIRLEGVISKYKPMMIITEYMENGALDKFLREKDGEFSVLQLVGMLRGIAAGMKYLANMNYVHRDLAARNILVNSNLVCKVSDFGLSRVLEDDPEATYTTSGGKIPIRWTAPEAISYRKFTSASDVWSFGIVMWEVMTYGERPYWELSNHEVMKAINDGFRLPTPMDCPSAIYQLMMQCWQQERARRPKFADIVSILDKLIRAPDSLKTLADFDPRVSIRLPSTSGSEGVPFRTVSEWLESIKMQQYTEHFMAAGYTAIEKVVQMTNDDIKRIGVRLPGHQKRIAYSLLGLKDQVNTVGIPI
Dual specificity protein kinase CLK3, sequence (P49761 whole entry, looked up): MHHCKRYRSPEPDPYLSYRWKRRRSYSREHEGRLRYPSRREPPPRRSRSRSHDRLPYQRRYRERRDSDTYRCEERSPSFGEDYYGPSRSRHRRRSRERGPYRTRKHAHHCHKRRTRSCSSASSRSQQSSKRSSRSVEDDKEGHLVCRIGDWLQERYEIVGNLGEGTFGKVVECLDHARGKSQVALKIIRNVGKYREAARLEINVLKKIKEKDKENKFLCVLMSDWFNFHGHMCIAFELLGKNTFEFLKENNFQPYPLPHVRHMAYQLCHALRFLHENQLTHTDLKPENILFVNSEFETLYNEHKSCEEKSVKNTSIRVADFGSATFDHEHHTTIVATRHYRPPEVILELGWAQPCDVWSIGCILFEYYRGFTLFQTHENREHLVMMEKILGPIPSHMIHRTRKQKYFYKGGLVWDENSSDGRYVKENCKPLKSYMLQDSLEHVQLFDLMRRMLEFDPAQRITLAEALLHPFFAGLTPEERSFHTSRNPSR

Turning to `Cn1cc(-n2cnc3c(NCc4nc5cc(Cl)c(Cl)cc5[nH]4)nc(N4CCOCC4)nc32)cn1`, the % of inhibition in [1] is -24.9%. As for `Cc1cc(F)c(C(=O)Nc2cccc(-c3nncn3C(C)C)n2)cc1-n1cnc(C2CC2)c1`, in assay [2], the % of control worked out at 90%.

For orientation: IC50 means the concentration that gives 50% inhibition. With `CCc1cc(Nc2nccc(-c3c(-c4ccc(OC)c(C(=O)Nc5c(F)cccc5F)c4)nc4ccccn34)n2)c(OC)cc1N1CCC(N2CCN(S(C)(=O)=O)CC2)CC1`, the IC50 in assay [3] came out at 357 nM. For the compound `CC[C@@H]1[C@H](F)C(=O)N[C@@H]1COc1nccc2cc(C(N)=O)c(OC)cc12` [ZIMLOVISERTIB], in assay [4], the % of inhibition came to 23.6%. The compound `CN(C)C/C=C/C(=O)Nc1ccc(C(=O)N2CCCC(Nc3ncc(Cl)c(-c4c[nH]c5ccccc45)n3)C2)cc1` (centres undefined) came in with a % of control in [5] of 81%. In [6], `O[C@H]1CC[C@H](Nc2ncc3nc(Nc4c(F)cc(F)cc4F)n([C@H]4CCOC4)c3n2)CC1` displayed a % of control of 100%. For `CC(C)(O)[C@H](F)CN1Cc2cc(NC(=O)c3cnn4cccnc34)c(N3CCOCC3)cc2C1=O`, the dTM in assay [7] was determined as 3.4 K. `Nc1cnc(N2CCc3cc(S(=O)(=O)Nc4c(F)cc(Cl)cc4F)cc(N4CCCC4=O)c32)nc1` [TP-020n] showed a % of control in assay [8] of 100%.

The compound `CC(=O)Nc1cccc(-n2c(=O)n(C3CC3)c(=O)c3c(Nc4ccc(I)cc4F)n(C)c(=O)c(C)c32)c1` returned a % of control in [9] of 99%.
